In patent US20250368614A1, “COMPOUNDS AND METHODS FOR YAP/TEAD MODULATION AND INDICATIONS THEREFOR” (OPNA BIO SA, priority 2023, published 2025):

Test system: TEAD-dependent transcription (12XGTIIC TEAD response element luciferase reporter) in MSTO-211H cells
Experiment: TEAD-dependent transcription cell-based luciferase reporter assay in MSTO-211H+12XGTIIC cells
Conditions: Homo sapiens; MSTO-211H+12XGTIIC reporter cells, 24 hours compound incubation, luminescence normalized to cell viability signal, geometric mean; read-out: MSTO-211H GMean IC50 (uM) Cell Assay Reporter Cell Variant: TEAD
Description: Determine Inhibitor Activity Against TEAD-Dependent Transcription in a Cell-Based Reporter Assay
The human mesothelioma cell line MSTO-211H was stably transfected with a pGL4.21 plasmid containing a synthetic promoter with 12 copies of the GTIIC TEAD response element that drives the expression of a luciferase reporter gene^1 using Lipofectamine transfection reagent (Thermo Fisher). Transfected cells were selected using puromycin and single cell clones expressing this construct (referred to as MSTO-211H+12XGTIIC) were generated by limiting dilution. MSTO-211H cells was characterized by genetic alterations in key components of the Hippo pathway^2, resulting in up-regulation of YAP/TEAD-mediated transcription. […] To evaluate TEAD inhibitors, the MSTO-211H+12XGTIIC cell line was seeded in a 96-well plate in 50 μL of culture media at 1×10^4 cells per well and incubated at 37° C. overnight. Serial dilutions of compounds (in total volume of 50 μL of culture media) were added to the cells and incubated at 37° C. for 24 hours. Each plate included cells treated with DMSO as high controls and cells treated with 20 μM of the reference compound K-975 (a known TEAD inhibitor^3) as low controls. Cell viability was assayed by the addition of 25 μL of CellTiter-Fluor reagent (Promega) followed by a 30-minute incubation at 37° C. and quantification of the fluorescence signal (Ex400/Em505). Subsequently, luciferase expression was assayed by the addition of 25 μL of ONE-Glo reagent (Promega) followed by a 10-minute incubation at room temperature and quantification of the luminescence signal. The luminescence signal was normalized to the fluorescence signal to correct for any loss in cell viability over the 24-hour compound incubation period. The percentage of inhibition of normalized luminescence signal, indicative of compound-mediated inhibition of TEAD-dependent transcription, at individual compound concentrations relative to high and low controls was calculated. The data were analyzed by using nonlinear regression to generate IC50 values for individual compounds.

| SMILES | IC50 [µM] |
| --- | --- |
| C=CC(=O)Nc1cccc(C(=O)N2CCc3c(cccc3Nc3ccc(C(F)(F)F)cc3)C2)n1 [Compound O-0035, N-(6-(5-((4-(trifluoromethyl)phenyl)amino)-1,2,3,4-tetrahydroisoquinoline-2-carbonyl)pyridin-2-yl)acrylamide] | 0.001 to 10 |
| O=C(c1cccc2cc[nH]c12)N1CCc2c(cccc2Nc2ccc(C(F)(F)F)nc2)C1 [Compound O-0060, (1H-indol-7-yl)(5-((6-(trifluoromethyl)pyridin-3-yl)amino)-3,4-dihydroisoquinolin-2(1H)-yl)methanone] | 0.001 to 10 |
| C=CC(=O)Nc1cccc(C(=O)N2CCc3c(cccc3Nc3ccc(C(F)(F)F)cc3)C2)c1 [Compound O-0034, N-(3-(5-((4-(trifluoromethyl)phenyl)amino)-1,2,3,4-tetrahydroisoquinoline-2-carbonyl)phenyl)acrylamide] | 0.001 to 10 |
| Nc1nccc(C(=O)N2CCc3c(cccc3Nc3ccc(C(F)(F)F)cc3)C2)n1 [Compound O-0033, (2-aminopyrimidin-4-yl)(5-((4-(trifluoromethyl)phenyl)amino)-3,4-dihydroisoquinolin-2(1H)-yl)methanone] | 0.001 to 10 |
| C=CC(=O)Nc1cncc(C(=O)N2CCc3c(cccc3Nc3ccc(C(F)(F)F)cc3)C2)c1 [Compound O-0037, N-(5-(5-((4-(trifluoromethyl)phenyl)amino)-1,2,3,4-tetrahydroisoquinoline-2-carbonyl)pyridin-3-yl)acrylamide] | 0.001 to 10 |
| O=C(CCS(=O)(=O)C(F)(F)F)N1CCc2c(ncnc2Nc2ccc(C(F)(F)F)cc2)C1 [Compound O-0024, 1-(4-((4-(trifluoromethyl)phenyl)amino)-5,8-dihydropyrido[3,4-d]pyrimidin-7(6H)-yl)-3-((trifluoromethyl)sulfonyl)propan-1-one] | 0.001 to 10 |
| C=CC(=O)Nc1cccc(C(=O)N2CCc3c(cccc3N(C)c3ccc(C(F)(F)F)cc3)C2)c1 [Compound O-0017, N-(3-(5-(methyl(4-(trifluoromethyl)phenyl)amino)-1,2,3,4-tetrahydroisoquinoline-2-carbonyl)phenyl)acrylamide] | 0.001 to 10 |
| Nc1nc(C(=O)N2CCc3c(cccc3Nc3ccc(C(F)(F)F)cc3)C2)cs1 [Compound O-0006, (2-aminothiazol-4-yl)(5-((4-(trifluoromethyl)phenyl)amino)-3,4-dihydroisoquinolin-2(1H)-yl)methanone] | 0.001 to 10 |
| O=C(CCS(=O)(=O)C(F)(F)F)N1CCc2cc(Nc3ccc(C(F)(F)F)cc3)ccc2C1 [Compound O-0205, 1-(6-((4-(trifluoromethyl)phenyl)amino)-3,4-dihydroisoquinolin-2(1H)-yl)-3-((trifluoromethyl)sulfonyl)propan-1-one] | 0.001 to 10 |
| O=C(NCCC(=O)N1CCc2c(cccc2Nc2ccc(C(F)(F)F)c(F)c2)C1)Nc1ccccn1 [Compound O-0185, 1-(3-(5-((3-fluoro-4-(trifluoromethyl)phenyl)amino)-3,4-dihydroisoquinolin-2(1H)-yl)-3-oxopropyl)-3-(pyridin-2-yl)urea] | 0.001 to 10 |
| C=CC(=O)Nc1ccc(C(=O)N2CCc3c(cccc3N(C)c3ccc(C(F)(F)F)cc3)C2)cc1 [Compound O-0019, N-(4-(5-(methyl(4-(trifluoromethyl)phenyl)amino)-1,2,3,4-tetrahydroisoquinoline-2-carbonyl)phenyl)acrylamide] | 0.001 to 10 |
| NC(=O)N1CCC(C(=O)N2CCc3c(cccc3Nc3ccc(C(F)(F)F)cc3)C2)C1 (centres unmarked) [Compound O-0057, 3-(5-((4-(trifluoromethyl)phenyl)amino)-1,2,3,4-tetrahydroisoquinoline-2-carbonyl)pyrrolidine-1-carboxamide] | 0.001 to 10 |
| O=C(c1ccnc(Cl)n1)N1CCc2c(cccc2Nc2ccc(C(F)(F)F)cc2)C1 [Compound O-0041, (2-chloropyrimidin-4-yl)(5-((4-(trifluoromethyl)phenyl)amino)-3,4-dihydroisoquinolin-2(1H)-yl)methanone] | 0.001 to 10 |
| CN(c1ccc(C(F)(F)F)nc1)c1cccc2c1CCN(C(=O)CCS(=O)(=O)C(F)(F)F)C2 [Compound O-0023, 1-(5-(methyl(6-(trifluoromethyl)pyridin-3-yl)amino)-3,4-dihydroisoquinolin-2(1H)-yl)-3-((trifluoromethyl)sulfonyl)propan-1-one] | 0.001 to 10 |
| Nc1cccc(CNC(=O)N2CCc3c(cccc3Nc3ccc(C(F)(F)F)cc3)C2)n1 [Compound O-0191, N-((6-aminopyridin-2-yl)methyl)-5-((4-(trifluoromethyl)phenyl)amino)-3,4-dihydroisoquinoline-2(1H)-carboxamide] | 0.001 to 10 |
| CN(c1ccc(C(F)(F)F)cc1)c1cccc2c1CCN(C(=O)c1cccc3[nH]ccc13)C2 [Compound O-0012, (1H-indol-4-yl)(5-(methyl(4-(trifluoromethyl)phenyl)amino)-3,4-dihydroisoquinolin-2(1H)-yl)methanone] | 0.001 to 10 |
| Nc1nc(CC(=O)N2CCc3c(cccc3Nc3ccc(C(F)(F)F)cc3)C2)cs1 [Compound O-0007, 2-(2-aminothiazol-4-yl)-1-(5-((4-(trifluoromethyl)phenyl)amino)-3,4-dihydroisoquinolin-2(1H)-yl)ethan-1-one] | 0.001 to 10 |
| O=C(Cc1cn[nH]c1)N1CCc2c(cccc2Nc2ccc(C(F)(F)F)nc2)C1 [Compound O-0059, 2-(1H-pyrazol-4-yl)-1-(5-((6-(trifluoromethyl)pyridin-3-yl)amino)-3,4-dihydroisoquinolin-2(1H)-yl)ethan-1-one] | 0.001 to 10 |
| O=C(NCCC(=O)N1CCc2c(cccc2Nc2ccc(C(F)(F)F)nc2)C1)Nc1ccccn1 [Compound O-0184, 1-(3-oxo-3-(5-((6-(trifluoromethyl)pyridin-3-yl)amino)-3,4-dihydroisoquinolin-2(1H)-yl)propyl)-3-(pyridin-2-yl)urea] | 0.001 to 10 |
| O=C(NCCC(=O)N1CCc2c(cccc2Nc2ccc(C(F)(F)F)cn2)C1)Nc1ccccn1 [Compound O-0186, 1-(3-oxo-3-(5-((5-(trifluoromethyl)pyridin-2-yl)amino)-3,4-dihydroisoquinolin-2(1H)-yl)propyl)-3-(pyridin-2-yl)urea] | 0.001 to 10 |
| CN(c1ccc(C(F)(F)F)cn1)c1cccc2c1CCN(C(=O)CCS(=O)(=O)C(F)(F)F)C2 [Compound O-0022, 1-(5-(methyl(5-(trifluoromethyl)pyridin-2-yl)amino)-3,4-dihydroisoquinolin-2(1H)-yl)-3-((trifluoromethyl)sulfonyl)propan-1-one] | 0.001 to 10 |
| O=C(Nc1ccccn1)N1CCC(C(=O)N2CCc3c(cccc3Nc3ccc(C(F)(F)F)cc3F)C2)C1 (centres unmarked) [Compound O-0095, 3-(5-((2-fluoro-4-(trifluoromethyl)phenyl)amino)-1,2,3,4-tetrahydroisoquinoline-2-carbonyl)-N-(pyridin-2-yl)pyrrolidine-1-carboxamide] | 0.001 to 10 |
| O=C1NS(=O)(=O)c2cc(C(=O)N3CCc4c(cccc4Nc4ccc(C(F)(F)F)cc4)C3)ccc21 [Compound O-0199, 6-(5-((4-(trifluoromethyl)phenyl)amino)-1,2,3,4-tetrahydroisoquinoline-2-carbonyl)benzo[d]isothiazol-3(2H)-one 1,1-dioxide] | 0.001 to 10 |
